Data taken from patent publication US9174980B2, “Heterocyclic compounds as inhibitors of leukotriene production” (Boehringer Ingelheim International GmbH, priority 2012, dated 2015).
Like-named read-outs stand apart in the source and are kept apart here.

Legend:
[1] = biological target: T1, recombinant human FLAP protein (Homo sapiens, UniProt P20292); experiment: FLAP binding assay (Scintillation Proximity Assay, displacement of [125I]L-691,831); conditions: read-out: Human FLAP SPA Binding (IC50 nM)
T1 construct: made in house; host or cells: Sf9 insect cells (membrane fraction, 100,000 x g pellet)
T1 sequence (P20292 1-161): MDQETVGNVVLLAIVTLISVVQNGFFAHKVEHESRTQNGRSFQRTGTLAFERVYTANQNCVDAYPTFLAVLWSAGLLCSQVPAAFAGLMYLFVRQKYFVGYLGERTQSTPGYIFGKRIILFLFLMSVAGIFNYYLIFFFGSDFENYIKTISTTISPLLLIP
Procedure, shortened: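 Membranes from sf9 cells expressing recombinant human FLAP (5 μg/well) on WGA SPA beads were incubated with compound and 0.08 nM [125I]L-691,831 in Tris pH 7.5 binding buffer, shaken 2 h. Displacement read by scintillation proximity; non-specific binding set with 10 μM unlabelled L-691,831.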

[2] = system: synthesis of LTB4 in human whole blood; experiment: Human whole blood assay (calcimycin-stimulated LTB4 synthesis); format: cell-based; conditions: read-out: Human Whole Blood LTB4 Assay for FLAP (IC50 nM)
Procedure, shortened: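 Whole-blood cellular format, heparinized human donors: 15 min compound pretreatment, then 30 min calcimycin stimulation (20 μM final), both at 37° C. Low-speed centrifugation yields plasma, in which LTB4 is read by homogeneous time-resolved fluorescence immunoassay.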

Compound	IC50 [1] [nM]	IC50 ([2]; Homo sapiens) [nM]	IC50 [2] [nM]
Nc1ncc(-c2ccc(C3(c4nc5cnccc5[nH]4)CCC3)cc2)cn1 [Example 126, 5-{4-[1-(1H-imidazo[4,5-c]pyridin-2-yl)cyclobutyl]phenyl}pyrimidin-2-amine]	71	1800	–
Nc1ncc(-c2ccc(C3(c4nc5ccccc5o4)CCC3)cc2)cn1 [Example 127, 5-{4-[1-(1,3-benzoxazol-2-yl)cyclobutyl]phenyl}pyrimidin-2-amine]	7.2	1900	–
Nc1ncc(-c2ccc(C3(c4nc5ccccc5s4)CCC3)cc2)cn1 [Example 128, 5-{4-[1-(1,3-benzothiazol-2-yl)cyclobutyl]phenyl}pyrimidin-2-amine]	8.1	2300	–
Cc1ccc(-c2nnc(C3(c4ccc(-c5cnc(N)nc5)cc4)CCC3)[nH]2)cn1 [Example 129, 5-(4-{1-[5-(6-methylpyridin-3-yl)-4H-1,2,4-triazol-3-yl]cyclobutyl}phenyl)pyrimidin-2-amine]	7.6	4000	–
c1cnc2[nH]cc(C3(c4ccc(-c5cnc6[nH]ccc6c5)cc4)CCC3)c2c1 [Example 130, 3-{1-[4-(1H-pyrrolo[2,3-b]pyridin-5-yl)phenyl]cyclobutyl}-1H-pyrrolo[2,3-b]pyridine]	1.5	140	–
Cc1ccc(-c2nnc(C3(c4ccc(-c5cnc(N)nc5)cc4)CCC3)s2)cn1 [Example 131, 5-(4-{1-[5-(6-methylpyridin-3-yl)-1,3,4-thiadiazol-2-yl]cyclobutyl}phenyl)pyrimidin-2-amine]	5.5	920	–
CN(CCO)C(=O)Cn1cc(C2(c3ccc(-c4cnc(N)nc4)cc3)CCC2)c2ccccc21 [Example 132, 2-(3-{1-[4-(2-aminopyrimidin-5-yl)phenyl]cyclobutyl}-1H-indol-1-yl)-N-(2-hydroxyethyl)-N-methylacetamide]	7.2	> 5000	–
Nc1ncc(-c2ccc(C3(c4cn(CC(=O)N5CC(O)C5)c5ccccc45)CCC3)cc2)cn1 [Example 133, 2-(3-{1-[4-(2-aminopyrimidin-5-yl)phenyl]cyclobutyl}-1H-indol-1-yl)-1-(3-hydroxyazetidin-1-yl)ethanone]	7.5	> 5000	–
Nc1ncc(-c2ccc(C3(c4c[nH]c5c(C(=O)N6CC[C@@H](O)C6)cccc45)CCC3)cc2)cn1 [Example 134, (3-{1-[4-(2-aminopyrimidin-5-yl)phenyl]cyclobutyl}-1H-indol-7-yl)[(3R)-3-hydroxypyrrolidin-1-yl]methanone]	1.8	270	–
Nc1ncc(-c2ccc(C3(c4c[nH]c5c(C(=O)N6CC[C@H](O)C6)cccc45)CCC3)cc2)cn1 [Example 135, (3-{1-[4-(2-aminopyrimidin-5-yl)phenyl]cyclobutyl}-1H-indol-7-yl)[(3S)-3-hydroxypyrrolidin-1-yl]methanone]	2.3	500	–
Cn1c(C2(c3ccc(-c4cnc(N)nc4)cc3)CCC2)nc2ccccc21 [Example 136, 5-{4-[1-(1-methyl-1H-benzimidazol-2-yl)cyclobutyl]phenyl}pyrimidin-2-amine]	190	> 5000	–
Nc1ncc(-c2ccc(C3(c4nc5ccccc5[nH]4)CCC3)cn2)cn1 [Example 137, 5-{5-[1-(1H-benzimidazol-2-yl)cyclobutyl]pyridin-2-yl}pyrimidin-2-amine]	410	> 5000	–
Nc1ncc(-c2ccc(C3(c4nc5ccccc5o4)CCC3)cn2)cn1 [Example 138, 5-{5-[1-(1,3-benzoxazol-2-yl)cyclobutyl]pyridin-2-yl}pyrimidin-2-amine]	18	990	–
Nc1ncc(-c2ccc(C3(c4nc5ccccc5[nH]4)CCC3)cc2)cn1 [Example 139, 5-{4-[1-(1H-benzimidazol-2-yl)cyclobutyl]phenyl}pyrimidin-2-amine]	27	> 5000	–
Nc1ncc(-c2ccc(C3(c4nc5ccccc5s4)CCC3)cn2)cn1 [Example 140, 5-{5-[1-(1,3-benzothiazol-2-yl)cyclobutyl]pyridin-2-yl}pyrimidin-2-amine]	10	> 5000	–
Cc1cc2c(C3(c4ccc(-c5cnc(N)nc5)cc4)CCC3)c[nH]c2cn1 [Example 141, 5-{4-[1-(5-methyl-1H-pyrrolo[2,3-c]pyridin-3-yl)cyclobutyl]phenyl}pyrimidin-2-amine]	5.8	350	–
Nc1ncc(-c2ccc(C3(c4nnc(-c5ccc(F)cc5)[nH]4)CCC3)cn2)cn1 [Example 143, 5-(5-{1-[5-(4-fluorophenyl)-4H-1,2,4-triazol-3-yl]cyclobutyl}pyridin-2-yl)pyrimidin-2-amine]	12	1500	–
COc1ccc(-c2nnc(C3(c4ccc(-c5cnc(N)nc5)cc4)CCC3)[nH]2)cn1 [Example 144, 5-(4-{1-[5-(6-methoxypyridin-3-yl)-4H-1,2,4-triazol-3-yl]cyclobutyl}phenyl)pyrimidin-2-amine]	4	2500	–

Compound	IC50 [1] [nM]	IC50 ([2]; Homo sapiens) [nM]	IC50 [2] [nM]
COc1nccc2c(C3(c4ccc(-c5cnc(N)nc5)cc4)CCC3)c[nH]c12 [Example 145, 5-{4-[1-(7-methoxy-1H-pyrrolo[2,3-b]pyridin-3-yl)cyclobutyl]phenyl}pyrimidin-2-amine]	1.7	–	150
CN1CCN(C(=O)c2cccc3c(C4(c5ccc(-c6cnc(N)nc6)cc5)CCC4)c[nH]c23)CC1 [Example 146]	1.7	310	–
NC(=O)Cn1cc(C2(c3ccc(-c4cnc(N)nc4)cc3)CCC2)c2ccccc21 [Example 147]	7.9	> 5000	–
Nc1ncc(-c2ccc(C3(c4cn(CC(=O)N5CCOCC5)c5ccccc45)CCC3)cc2)cn1 [Example 148, 2-(3-{1-[4-(2-aminopyrimidin-5-yl)phenyl]cyclobutyl}-1H-indol-1-yl)-1-(morpholin-4-yl)ethanone]	9	3100	–
Nc1ncc(-c2ccc(C3(c4c[nH]c5c(C(=O)N6CCC6)cccc45)CCC3)cc2)cn1 [Example 149, (3-{1-[4-(2-aminopyrimidin-5-yl)phenyl]cyclobutyl}-1H-indol-7-yl)(azetidin-1-yl)methanone]	2	110	–
Nc1ncc(-c2ccc(C3(c4c[nH]c5c(C(=O)O)cccc45)CCC3)cc2)cn1 [Example 150, 3-{1-[4-(2-aminopyrimidin-5-yl)phenyl]cyclobutyl}-1H-indole-7-carboxylic acid]	1.5	> 5000	–
Cc1cc(C2(c3c[nH]c4ccccc34)CCC2)ccc1-c1cnc(N)nc1 [Example 151, 5-{4-[1-(1H-indol-3-yl)cyclobutyl]-2-methylphenyl}pyrimidin-2-amine]	7	890	–
Cc1nccc2c(C3(c4ccc(-c5cnc(N)nc5)cc4)CCC3)c[nH]c12 [Example 152, 5-{4-[1-(7-methyl-1H-pyrrolo[2,3-c]pyridin-3-yl)cyclobutyl]phenyl}pyrimidin-2-amine]	1.7	55	–
COc1ncccc1-c1nnc(C2(c3ccc(-c4cnc(N)nc4)cc3)CCC2)[nH]1 [Example 153, 5-(4-{1-[5-(2-methoxypyridin-3-yl)-4H-1,2,4-triazol-3-yl]cyclobutyl}phenyl)pyrimidin-2-amine]	3.1	1100	–
Cn1cc(C(c2ccc(-c3cnc(N)nc3)cc2)C(C)(C)C)c2ccccc21 (stereo not shown) [Example 154, 5-{4-[2,2-dimethyl-1-(1-methyl-1H-indol-3-yl)propyl]phenyl}pyrimidin-2-amine]	22	> 5000	–
Nc1ncc(-c2ccc(C3(c4c[nH]c5c(=O)[nH]ccc45)CCC3)cc2)cn1 [Example 155]	2.5	370	–
Cn1cc(C(c2ccc(-c3cnc(N)nc3)cn2)C(C)(C)C)c2ccccc21 (stereo not shown) [Example 156, 5-{6-[2,2-dimethyl-1-(1-methyl-1H-indol-3-yl)propyl]pyridin-3-yl}pyrimidin-2-amine]	260	> 5000	–
Cc1ccc(-c2csc(C3(c4ccc(-c5cnc(N)nc5)cc4)CCC3)n2)cn1 [Example 157, 5-(4-{1-[4-(6-methylpyridin-3-yl)-1,3-thiazol-2-yl]cyclobutyl}phenyl)pyrimidin-2-amine]	16	2600	–
Cc1ccc(-c2cc(C3(c4ccc(-c5cnc(N)nc5)cc4)CCC3)no2)cn1 [Example 158, 5-(4-{1-[5-(6-methylpyridin-3-yl)-1,2-oxazol-3-yl]cyclobutyl}phenyl)pyrimidin-2-amine]	5.2	430	–
COCCNC(=O)c1cccc2c(C3(c4ccc(-c5cnc(N)nc5)cc4)CCC3)c[nH]c12 [Example 159]	1.9	43	–
Cc1ccc(-c2cc(C(C)(c3ccc(-c4cnc(N)nc4)nc3)C(C)C)[nH]n2)cn1 (stereo not shown) [Example 160, 5-(5-{3-methyl-2-[5-(6-methylpyridin-3-yl)-1H-pyrazol-3-yl]butan-2-yl}pyridin-2-yl)pyrimidin-2-amine]	8.4	1400	–
CC(C)C(C)(c1ccc(-c2cnc(N)nc2)nc1)c1cc(-c2cnn(C)c2)on1 (stereo not shown) [Example 161, 5-(5-{3-methyl-2-[5-(1-methyl-1H-pyrazol-4-yl)-1,2-oxazol-3-yl]butan-2-yl}pyridin-2-yl)pyrimidin-2-amine]	8.2	160	–
